Molecules are shown by their SMILES.

T1 sequence (P47869 29-451): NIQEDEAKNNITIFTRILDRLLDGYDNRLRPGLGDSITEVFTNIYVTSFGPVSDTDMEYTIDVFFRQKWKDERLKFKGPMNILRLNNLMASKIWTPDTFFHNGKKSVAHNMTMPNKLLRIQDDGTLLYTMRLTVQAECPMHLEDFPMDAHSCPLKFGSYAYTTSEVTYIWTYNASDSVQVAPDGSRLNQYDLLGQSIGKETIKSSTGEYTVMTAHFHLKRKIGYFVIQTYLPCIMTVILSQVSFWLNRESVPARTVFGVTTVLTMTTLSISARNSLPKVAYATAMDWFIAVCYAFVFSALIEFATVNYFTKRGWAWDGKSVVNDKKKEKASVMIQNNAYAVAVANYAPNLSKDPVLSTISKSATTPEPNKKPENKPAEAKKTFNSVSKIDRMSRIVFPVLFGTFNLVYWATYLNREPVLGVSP
T1 sequence (P28472 26-473 partner): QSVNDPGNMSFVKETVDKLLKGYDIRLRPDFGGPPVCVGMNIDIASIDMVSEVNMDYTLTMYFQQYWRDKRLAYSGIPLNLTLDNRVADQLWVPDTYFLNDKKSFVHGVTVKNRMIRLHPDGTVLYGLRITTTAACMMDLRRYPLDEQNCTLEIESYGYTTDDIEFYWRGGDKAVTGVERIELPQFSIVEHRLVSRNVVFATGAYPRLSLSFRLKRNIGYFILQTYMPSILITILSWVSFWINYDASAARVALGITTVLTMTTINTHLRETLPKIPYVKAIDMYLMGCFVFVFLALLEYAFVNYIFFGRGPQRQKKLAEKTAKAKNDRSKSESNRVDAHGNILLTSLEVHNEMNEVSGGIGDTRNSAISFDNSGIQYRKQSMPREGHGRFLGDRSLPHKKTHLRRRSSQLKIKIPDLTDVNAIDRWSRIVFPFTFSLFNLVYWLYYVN
T1 sequence (P18507 40-475): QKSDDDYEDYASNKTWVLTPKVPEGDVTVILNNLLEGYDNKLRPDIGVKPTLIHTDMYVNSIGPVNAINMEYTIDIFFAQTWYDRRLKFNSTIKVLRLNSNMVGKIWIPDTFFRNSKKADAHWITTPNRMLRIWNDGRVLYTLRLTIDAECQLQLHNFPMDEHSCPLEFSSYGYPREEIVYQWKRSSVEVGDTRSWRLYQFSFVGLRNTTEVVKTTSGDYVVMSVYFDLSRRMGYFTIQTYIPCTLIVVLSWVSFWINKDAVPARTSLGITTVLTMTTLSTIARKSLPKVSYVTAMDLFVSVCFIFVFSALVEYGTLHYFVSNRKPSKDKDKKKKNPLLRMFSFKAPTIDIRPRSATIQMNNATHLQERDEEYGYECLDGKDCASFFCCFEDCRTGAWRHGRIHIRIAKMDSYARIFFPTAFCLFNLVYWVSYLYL

The experiment addresses T1, GABAA2 receptors (α2, β3, γ2 receptor subunits transfected into Sf9 cells) (Homo sapiens, UniProt P18507+P47869).
T1 construct: host or cells: Sf9 cells (membranes)
Nature of the experiment: GABAA2 Binding Method ([3H]-Flunitrazepam displacement). Particulars: [3H]-Flunitrazepam ~2 nM, α2β3γ2 Sf9 membranes, 1 hr at 4° C. The procedure: In some embodiments, the binding test is directed to a subtype of GABAA receptors, such as GABAA1 receptors (i.e., those containing the α1 subunit), GABAA2 receptors (i.e., those containing the α2 subunit), GABAA3 receptors (i.e., those containing the α3 subunit) and GABAA5 receptors (i.e., those containing the α5 subunit).
[^3H]-Flunitrazepam (Cat #NET567): Prepare 10× stock=20 nM, [F} in assay=˜2 nM
1. […] Add 5 ul of 30 uM flumazenil to wells 12 D-E for 50% control wells.
5. Add 25 μl [^3H]-Flunitrazepam (Automation Program 6). Incubate for 1 hr at 4° C.
6. Collect membranes on a cell harvester onto GF/B filter plates (pre-wet with dH2O and wash 5×400 μl/well, with cold assay buffer. (First 3 washes are considered hot; last two are cold.)
Data is analyzed by calculating percent of control, IC50, and Ki in an XLfit template. The following formula is used in the templates: […]
`CCCN1Cc2nc3c(-c4c(C#N)cccc4OC)cccc3c(N)c2C1=O` [2-(9-amino-1-oxo-2-propyl-2,3-dihydro-1H-pyrrolo[3,4-b]quinolin-5-yl)-3-methoxybenzonitrile]: the Ki (usually the equilibrium dissociation constant of an inhibitor or competing ligand from its target) was determined as 75.7 nM.
The value for `CN1Cc2nc3c(-c4ccccc4C#N)cccc3c(N)c2C1=O` [2-(9-amino-2-methyl-1-oxo-2,3-dihydro-1H-pyrrolo[3,4-b]quinolin-5-yl)benzonitrile] was 64.3 nM; that for `CCCN1Cc2nc3c(-c4ccc(C#N)cc4)cccc3c(N)c2C1=O` [4-(9-amino-1-oxo-2-propyl-2,3-dihydro-1H-pyrrolo[3,4-b]quinolin-5-yl)benzonitrile] was 52.1 nM; that for `CCCN1Cc2nc3c(-c4ccc(F)c(C#N)c4)cccc3c(N)c2C1=O` [5-(9-amino-1-oxo-2-propyl-2,3-dihydro-1H-pyrrolo[3,4-b]quinolin-5-yl)-2-fluorobenzonitrile] was 74.5 nM.
Consider `CCC(C)N1Cc2nc3c(-c4c(F)cccc4OC)cccc3c(N)c2C1=O` (stereo not drawn) [9-amino-2-(2-butyl)-5-(2-fluoro-6-methoxyphenyl)-2,3-dihydro-1H-pyrrolo[3,4-b]quinolin-1-one], for which the Ki was determined as 46.2 nM.
`COc1cccc(F)c1-c1cccc2c(N)c3c(nc12)CN(Cc1cccc(Cl)c1)C3=O` [9-amino-2-(3-chlorobenzyl)-5-(2-fluoro-6-methoxyphenyl)-2,3-dihydro-1H-pyrrolo[3,4-b]quinolin-1-one]: the affinity corresponds to a Ki of 27.8 nM.
In turn, `COc1ccc(CN2Cc3nc4c(-c5cnn(C)c5)cccc4c(N)c3C2=O)cc1` [9-amino-2-(4-methoxybenzyl)-5-(1-methyl-1H-pyrazol-4-yl)-2,3-dihydro-1H-pyrrolo[3,4-b]quinolin-1-one] displayed a Ki of 70.6 nM.
Compound `COc1ccc(CN2Cc3nc4c(-c5ccccc5C(F)(F)F)cccc4c(N)c3C2=O)cc1` [9-amino-2-(4-methoxybenzyl)-5-(2-(trifluoromethyl)phenyl)-2,3-dihydro-1H-pyrrolo[3,4-b]quinolin-1-one] displayed a Ki of 34.1 nM.
Turning to `COc1ccc(CN2Cc3nc4c(-c5ccc(C)nc5)cccc4c(N)c3C2=O)cc1` [9-amino-2-(4-methoxybenzyl)-5-(6-methylpyridin-3-yl)-2,3-dihydro-1H-pyrrolo[3,4-b]quinolin-1-one], affinity was put at a Ki of 60.5 nM.
For `CCCCN1Cc2nc3c(-c4ccc(C)nc4)cccc3c(N)c2C1=O` [9-amino-2-butyl-5-(6-methylpyridin-3-yl)-2,3-dihydro-1H-pyrrolo[3,4-b]quinolin-1-one], the Ki amounted to 90.5 nM.
`Nc1c2c(nc3c(-c4cc(F)cc(F)c4)cccc13)CN(C1CCC1)C2=O` [9-amino-2-cyclobutyl-5-(3,5-difluorophenyl)-2,3-dihydro-1H-pyrrolo[3,4-b]quinolin-1-one] displayed a Ki of 39.3 nM.
The value for `COc1ccc(-c2cccc3c(N)c4c(nc23)CN(C2CC2)C4=O)c(OC)c1` [9-amino-2-cyclopropyl-5-(2,4-dimethoxyphenyl)-2,3-dihydro-1H-pyrrolo[3,4-b]quinolin-1-one] was 58.4 nM; that for `COc1ncc(-c2cccc3c(N)c4c(nc23)CN(C2CC2)C4=O)c(OC)n1` [9-amino-2-cyclopropyl-5-(2,4-dimethoxypyrimidin-5-yl)-2,3-dihydro-1H-pyrrolo[3,4-b]quinolin-1-one] was 78.2 nM; that for `COc1cc(F)c(-c2cccc3c(N)c4c(nc23)CN(C2CC2)C4=O)cc1F` [9-amino-2-cyclopropyl-5-(2,5-difluoro-4-methoxyphenyl)-2,3-dihydro-1H-pyrrolo[3,4-b]quinolin-1-one] was 36.8 nM.
Next, `COc1ccc(OC)c(-c2c(SC)ccc3c(N)c4c(nc23)CN(C2CC2)C4=O)c1` [9-amino-2-cyclopropyl-5-(2,5-dimethoxyphenyl)-6-(methylthio)-2,3-dihydro-1H-pyrrolo[3,4-b]quinolin-1-one]: 36.7 nM; `COc1ccccc1-c1cccc2c(N)c3c(nc12)CN(C1CC1)C3=O` [9-amino-2-cyclopropyl-5-(2-methoxyphenyl)-2,3-dihydro-1H-pyrrolo[3,4-b]quinolin-1-one]: 54.1 nM.
`COc1cc(F)ccc1-c1cccc2c(N)c3c(nc12)CN(C1CC1)C3=O` [9-amino-2-cyclopropyl-5-(4-fluoro-2-methoxyphenyl)-2,3-dihydro-1H-pyrrolo[3,4-b]quinolin-1-one]: the Ki worked out at 83.1 nM.
`COc1ccc(F)cc1-c1cccc2c(N)c3c(nc12)CN(C1CC1)C3=O` [9-amino-2-cyclopropyl-5-(5-fluoro-2-methoxyphenyl)-2,3-dihydro-1H-pyrrolo[3,4-b]quinolin-1-one] had a Ki of 73.4 nM.
In the case of `Nc1c2c(nc3c(-c4cccnc4)cccc13)CN(C1CC1)C2=O` [9-amino-2-cyclopropyl-5-(pyridin-3-yl)-2,3-dihydro-1H-pyrrolo[3,4-b]quinolin-1-one], the Ki was determined as 64.7 nM.
For the compound `CCN1Cc2nc3c(-c4cc(F)cc(OC)c4)cccc3c(N)c2C1=O` [9-amino-2-ethyl-5-(3-fluoro-5-methoxyphenyl)-2,3-dihydro-1H-pyrrolo[3,4-b]quinolin-1-one], the inhibition constant (Ki) was 34.3 nM.
The value for `CCN1Cc2nc3c(-c4ccc(C)nc4)cccc3c(N)c2C1=O` [9-amino-2-ethyl-5-(6-methylpyridin-3-yl)-2,3-dihydro-1H-pyrrolo[3,4-b]quinolin-1-one] was 77.6 nM; that for `CCN1Cc2nc3c(-c4cccc(OC)c4F)c(F)ccc3c(N)c2C1=O` [9-amino-2-ethyl-6-fluoro-5-(2-fluoro-3-methoxyphenyl)-2,3-dihydro-1H-pyrrolo[3,4-b]quinolin-1-one] was 5.29 nM; that for `Cc1ccncc1-c1cccc2c(N)c3c(nc12)CN(C)C3=O` [9-amino-2-methyl-5-(4-methylpyridin-3-yl)-2,3-dihydro-1H-pyrrolo[3,4-b]quinolin-1-one] was 64.9 nM.
As for `CCCN1Cc2nc3c(-c4cnn(C)c4)cccc3c(N)c2C1=O` [9-amino-5-(1-methyl-1H-pyrazol-4-yl)-2-propyl-2,3-dihydro-1H-pyrrolo[3,4-b]quinolin-1-one], affinity was put at a Ki of 99.7 nM.
Compound `COc1ccc(CN2Cc3nc4c(-c5cccc(F)c5F)cccc4c(N)c3C2=O)cc1` [9-amino-5-(2,3-difluorophenyl)-2-(4-methoxybenzyl)-2,3-dihydro-1H-pyrrolo[3,4-b]quinolin-1-one] yielded a Ki of 98.2 nM.
For `CCN1Cc2nc3c(-c4cccc(OC)c4OC)cccc3c(N)c2C1=O` [9-amino-5-(2,3-dimethoxyphenyl)-2-ethyl-2,3-dihydro-1H-pyrrolo[3,4-b]quinolin-1-one], the Ki stood at 81.9 nM.
Consider `CCN1Cc2nc3c(-c4ccc(OC)cc4OC)cccc3c(N)c2C1=O` [9-amino-5-(2,4-dimethoxyphenyl)-2-ethyl-2,3-dihydro-1H-pyrrolo[3,4-b]quinolin-1-one], for which affinity was put at a Ki of 99.1 nM.
For `COc1ccc(-c2cccc3c(N)c4c(nc23)CN(C)C4=O)c(OC)c1` [9-amino-5-(2,4-dimethoxyphenyl)-2-methyl-2,3-dihydro-1H-pyrrolo[3,4-b]quinolin-1-one], affinity was put at a Ki of 79 nM.
Next, `COc1ccc(CN2Cc3nc4c(-c5cc(OC)ccc5OC)cccc4c(N)c3C2=O)cc1` [9-amino-5-(2,5-dimethoxyphenyl)-2-(4-methoxybenzyl)-2,3-dihydro-1H-pyrrolo[3,4-b]quinolin-1-one]: 70.2 nM.
For the compound `CCCN1Cc2nc3c(-c4ccc(Cl)nc4Cl)cccc3c(N)c2C1=O` [9-amino-5-(2,6-dichloropyridin-3-yl)-2-propyl-2,3-dihydro-1H-pyrrolo[3,4-b]quinolin-1-one], the affinity, expressed as Ki, was 21.6 nM.

The values above are taken from patent US20080318943A1, “Compounds and Uses Thereof - 848” (ASTRAZENECA AB, priority 2007, published 2008).
